How the values were obtained:
[1] = target: CDKL4(h) (Homo sapiens, UniProt Q5MAI5); test: Kinase Profiler; format: biochemical
Procedure: (§1) The kinase profiler was performed by the company Eurofins (Discovery, Panlab and Cerep).

[2] = target: STK32C(h) (Homo sapiens, UniProt Q86UX6); test: Kinase Profiler; format: biochemical
Procedure: as §1

[3] = tested on: CK1(y); test: Kinase Profiler; format: biochemical, yeast
Procedure: as §1

[4] = target: CDK6/cyclinD3(h) (Homo sapiens, UniProt Q00534); test: Kinase Profiler; format: biochemical
Procedure: (§2) Blood cell counts, kinase profiler, safety screen, bacterial cytotoxicity, Ames, micronucleus assays were performed by the company Eurofins (France). The kinase profiler was performed by the company Eurofins (Discovery, Panlab and Cerep).

[5] = target: TNIK(h) (Homo sapiens, UniProt Q9UKE5); test: Kinase Profiler; format: biochemical
Sequence of TNIK(h) (Q9UKE5 whole entry): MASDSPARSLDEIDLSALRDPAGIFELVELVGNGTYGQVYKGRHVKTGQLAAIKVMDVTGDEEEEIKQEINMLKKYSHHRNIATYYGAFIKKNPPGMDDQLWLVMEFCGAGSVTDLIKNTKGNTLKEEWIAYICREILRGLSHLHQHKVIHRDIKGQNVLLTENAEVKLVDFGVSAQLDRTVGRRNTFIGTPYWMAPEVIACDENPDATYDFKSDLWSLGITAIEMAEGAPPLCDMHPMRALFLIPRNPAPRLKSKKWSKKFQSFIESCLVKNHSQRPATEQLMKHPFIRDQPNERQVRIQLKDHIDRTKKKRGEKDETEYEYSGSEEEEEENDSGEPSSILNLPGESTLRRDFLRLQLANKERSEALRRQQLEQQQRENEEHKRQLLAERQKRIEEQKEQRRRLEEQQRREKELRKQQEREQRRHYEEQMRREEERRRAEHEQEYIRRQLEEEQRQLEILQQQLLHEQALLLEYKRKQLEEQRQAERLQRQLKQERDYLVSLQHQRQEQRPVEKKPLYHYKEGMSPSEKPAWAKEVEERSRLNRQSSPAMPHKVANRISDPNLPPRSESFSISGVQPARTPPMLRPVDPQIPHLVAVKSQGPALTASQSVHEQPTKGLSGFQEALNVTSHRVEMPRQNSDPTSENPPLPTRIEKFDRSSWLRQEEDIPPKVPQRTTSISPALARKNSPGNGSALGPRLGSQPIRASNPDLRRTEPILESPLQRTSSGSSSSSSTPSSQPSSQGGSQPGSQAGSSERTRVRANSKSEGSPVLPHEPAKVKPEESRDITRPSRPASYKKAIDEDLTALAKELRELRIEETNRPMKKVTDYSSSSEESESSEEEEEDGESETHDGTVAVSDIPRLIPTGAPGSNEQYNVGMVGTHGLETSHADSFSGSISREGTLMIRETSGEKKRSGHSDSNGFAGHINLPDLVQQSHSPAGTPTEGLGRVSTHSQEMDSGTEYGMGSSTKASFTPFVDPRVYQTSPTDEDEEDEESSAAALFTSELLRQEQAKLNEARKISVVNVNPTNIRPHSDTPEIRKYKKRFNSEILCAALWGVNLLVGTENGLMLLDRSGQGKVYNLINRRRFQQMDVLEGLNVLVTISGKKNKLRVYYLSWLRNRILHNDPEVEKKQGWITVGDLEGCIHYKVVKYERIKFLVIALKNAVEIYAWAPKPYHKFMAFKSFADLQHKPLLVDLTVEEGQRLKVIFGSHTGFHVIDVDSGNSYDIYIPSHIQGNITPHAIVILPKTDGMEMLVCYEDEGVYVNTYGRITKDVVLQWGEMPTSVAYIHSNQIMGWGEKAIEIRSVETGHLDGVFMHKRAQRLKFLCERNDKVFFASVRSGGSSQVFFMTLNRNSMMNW
Procedure: as §1

[6] = target: PAK5(h) (Homo sapiens, UniProt Q9P286); test: Kinase Profiler; format: biochemical
Procedure: as §1

[7] = target: Pim-1(h) (Homo sapiens, UniProt P11309); test: Kinase Profiler; format: biochemical
Procedure: as §2

[8] = target: ATM(h) (Homo sapiens, UniProt Q13315); test: Kinase Profiler; format: biochemical
Procedure: as §1

[9] = target: PKBα(h) (Homo sapiens, UniProt P31749); test: Kinase Profiler; format: biochemical
Procedure: as §1

[10] = target: PI3K (p110a(H1047R)/p85a)(h) (Homo sapiens, UniProt P42336, H1047R); test: Kinase Profiler; format: biochemical
Procedure: as §1

[11] = target: Haspin(h) (Homo sapiens, UniProt Q8TF76); test: Kinase Profiler; format: biochemical
Procedure: as §1

[12] = target: AMPKα1(h) (Homo sapiens, UniProt Q13131); test: Kinase Profiler; format: biochemical
Procedure: as §2

[13] = target: Met(D1246N)(h) (Homo sapiens, UniProt P08581, D1228N); test: Kinase Profiler; format: biochemical
Procedure: as §1

[14] = target: Cannabinoid CB1 (Homo sapiens, UniProt P21554); test: Safety screen; format: binding
[15] = target: SAPK4(h) (Homo sapiens, UniProt O15264); test: Kinase Profiler; format: biochemical
Procedure: as §1

[16] = target: Tie2 (h) (Homo sapiens, UniProt Q02763); test: Kinase Profiler; format: biochemical
Procedure: as §2

[17] = target: MRCKα(h) (Homo sapiens, UniProt Q5VT25); test: Kinase Profiler; format: biochemical
Procedure: as §1

[18] = target: CDK1/cyclinB(h) (Homo sapiens, UniProt P06493); test: Kinase Profiler; format: biochemical
Procedure: as §2

[19] = target: MELK(h) (Homo sapiens, UniProt Q14680); test: Kinase Profiler; format: biochemical
Sequence of MELK(h) (Q14680 whole entry): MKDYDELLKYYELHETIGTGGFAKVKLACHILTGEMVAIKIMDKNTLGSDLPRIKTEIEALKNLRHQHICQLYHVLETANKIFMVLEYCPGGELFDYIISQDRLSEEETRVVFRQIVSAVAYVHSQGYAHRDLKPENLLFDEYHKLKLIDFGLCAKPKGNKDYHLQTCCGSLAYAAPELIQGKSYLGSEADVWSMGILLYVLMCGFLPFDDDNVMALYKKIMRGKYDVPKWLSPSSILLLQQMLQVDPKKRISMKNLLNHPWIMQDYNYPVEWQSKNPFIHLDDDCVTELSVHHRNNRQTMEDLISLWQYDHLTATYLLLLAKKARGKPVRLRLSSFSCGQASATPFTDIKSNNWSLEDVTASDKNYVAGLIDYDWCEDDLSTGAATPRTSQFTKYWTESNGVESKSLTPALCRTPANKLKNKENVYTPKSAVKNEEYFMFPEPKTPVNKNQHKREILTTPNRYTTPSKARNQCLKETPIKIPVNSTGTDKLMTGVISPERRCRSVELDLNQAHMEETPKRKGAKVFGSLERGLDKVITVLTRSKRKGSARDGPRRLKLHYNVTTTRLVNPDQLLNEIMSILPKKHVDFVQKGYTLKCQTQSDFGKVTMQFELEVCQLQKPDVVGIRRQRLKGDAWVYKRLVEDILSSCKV
Procedure: as §1

[20] = target: DCAMKL3(h) (Homo sapiens, UniProt Q9C098); test: Kinase Profiler; format: biochemical
Sequence of DCAMKL3(h) (Q9C098 whole entry): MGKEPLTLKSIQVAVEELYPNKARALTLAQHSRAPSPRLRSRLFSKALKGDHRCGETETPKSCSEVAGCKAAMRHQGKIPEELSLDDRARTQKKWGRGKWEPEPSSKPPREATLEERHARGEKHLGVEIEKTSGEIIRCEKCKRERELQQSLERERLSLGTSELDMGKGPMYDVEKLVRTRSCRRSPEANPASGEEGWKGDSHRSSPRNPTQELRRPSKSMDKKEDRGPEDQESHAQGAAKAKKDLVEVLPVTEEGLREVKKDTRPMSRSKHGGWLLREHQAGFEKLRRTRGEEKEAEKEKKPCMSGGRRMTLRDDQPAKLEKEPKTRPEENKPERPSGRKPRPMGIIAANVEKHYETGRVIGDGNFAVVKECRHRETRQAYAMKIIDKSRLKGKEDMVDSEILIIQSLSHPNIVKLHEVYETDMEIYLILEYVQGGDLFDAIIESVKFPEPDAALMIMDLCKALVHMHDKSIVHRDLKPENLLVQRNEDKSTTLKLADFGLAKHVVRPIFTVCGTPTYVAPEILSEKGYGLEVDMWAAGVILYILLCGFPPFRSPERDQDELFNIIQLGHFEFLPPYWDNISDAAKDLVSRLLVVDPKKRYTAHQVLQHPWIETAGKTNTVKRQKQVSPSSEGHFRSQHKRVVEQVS
Procedure: as §2

[21] = tested on: membrane receptors, ion channel, and kinases; test: In vitro binding assays on a panel of potential targets
Procedure: as §2

[22] = target: SIK2(h) (Homo sapiens, UniProt Q9H0K1); test: Kinase Profiler; format: biochemical
Procedure: as §1

[23] = target: CaMKI(h) (Homo sapiens, UniProt Q14012); test: Kinase Profiler; format: biochemical
Procedure: as §2

[24] = target: PIP5K1a(h) (Homo sapiens, UniProt Q99755); test: Kinase Profiler; format: biochemical
Procedure: as §1

[25] = target: CDK2/cyclinA(h) (Homo sapiens, UniProt P24941); test: Kinase Profiler; format: biochemical
Procedure: as §2

[26] = target: LATS1(h) (Homo sapiens, UniProt O95835); test: Kinase Profiler; format: biochemical
Procedure: as §1

[27] = target: PKCι(h) (Homo sapiens, UniProt P41743); test: Kinase Profiler; format: biochemical
Procedure: as §1

[28] = target: Ros(h) (Homo sapiens, UniProt P08922); test: Kinase Profiler; format: biochemical
Sequence of Ros(h) (P08922 28-2347): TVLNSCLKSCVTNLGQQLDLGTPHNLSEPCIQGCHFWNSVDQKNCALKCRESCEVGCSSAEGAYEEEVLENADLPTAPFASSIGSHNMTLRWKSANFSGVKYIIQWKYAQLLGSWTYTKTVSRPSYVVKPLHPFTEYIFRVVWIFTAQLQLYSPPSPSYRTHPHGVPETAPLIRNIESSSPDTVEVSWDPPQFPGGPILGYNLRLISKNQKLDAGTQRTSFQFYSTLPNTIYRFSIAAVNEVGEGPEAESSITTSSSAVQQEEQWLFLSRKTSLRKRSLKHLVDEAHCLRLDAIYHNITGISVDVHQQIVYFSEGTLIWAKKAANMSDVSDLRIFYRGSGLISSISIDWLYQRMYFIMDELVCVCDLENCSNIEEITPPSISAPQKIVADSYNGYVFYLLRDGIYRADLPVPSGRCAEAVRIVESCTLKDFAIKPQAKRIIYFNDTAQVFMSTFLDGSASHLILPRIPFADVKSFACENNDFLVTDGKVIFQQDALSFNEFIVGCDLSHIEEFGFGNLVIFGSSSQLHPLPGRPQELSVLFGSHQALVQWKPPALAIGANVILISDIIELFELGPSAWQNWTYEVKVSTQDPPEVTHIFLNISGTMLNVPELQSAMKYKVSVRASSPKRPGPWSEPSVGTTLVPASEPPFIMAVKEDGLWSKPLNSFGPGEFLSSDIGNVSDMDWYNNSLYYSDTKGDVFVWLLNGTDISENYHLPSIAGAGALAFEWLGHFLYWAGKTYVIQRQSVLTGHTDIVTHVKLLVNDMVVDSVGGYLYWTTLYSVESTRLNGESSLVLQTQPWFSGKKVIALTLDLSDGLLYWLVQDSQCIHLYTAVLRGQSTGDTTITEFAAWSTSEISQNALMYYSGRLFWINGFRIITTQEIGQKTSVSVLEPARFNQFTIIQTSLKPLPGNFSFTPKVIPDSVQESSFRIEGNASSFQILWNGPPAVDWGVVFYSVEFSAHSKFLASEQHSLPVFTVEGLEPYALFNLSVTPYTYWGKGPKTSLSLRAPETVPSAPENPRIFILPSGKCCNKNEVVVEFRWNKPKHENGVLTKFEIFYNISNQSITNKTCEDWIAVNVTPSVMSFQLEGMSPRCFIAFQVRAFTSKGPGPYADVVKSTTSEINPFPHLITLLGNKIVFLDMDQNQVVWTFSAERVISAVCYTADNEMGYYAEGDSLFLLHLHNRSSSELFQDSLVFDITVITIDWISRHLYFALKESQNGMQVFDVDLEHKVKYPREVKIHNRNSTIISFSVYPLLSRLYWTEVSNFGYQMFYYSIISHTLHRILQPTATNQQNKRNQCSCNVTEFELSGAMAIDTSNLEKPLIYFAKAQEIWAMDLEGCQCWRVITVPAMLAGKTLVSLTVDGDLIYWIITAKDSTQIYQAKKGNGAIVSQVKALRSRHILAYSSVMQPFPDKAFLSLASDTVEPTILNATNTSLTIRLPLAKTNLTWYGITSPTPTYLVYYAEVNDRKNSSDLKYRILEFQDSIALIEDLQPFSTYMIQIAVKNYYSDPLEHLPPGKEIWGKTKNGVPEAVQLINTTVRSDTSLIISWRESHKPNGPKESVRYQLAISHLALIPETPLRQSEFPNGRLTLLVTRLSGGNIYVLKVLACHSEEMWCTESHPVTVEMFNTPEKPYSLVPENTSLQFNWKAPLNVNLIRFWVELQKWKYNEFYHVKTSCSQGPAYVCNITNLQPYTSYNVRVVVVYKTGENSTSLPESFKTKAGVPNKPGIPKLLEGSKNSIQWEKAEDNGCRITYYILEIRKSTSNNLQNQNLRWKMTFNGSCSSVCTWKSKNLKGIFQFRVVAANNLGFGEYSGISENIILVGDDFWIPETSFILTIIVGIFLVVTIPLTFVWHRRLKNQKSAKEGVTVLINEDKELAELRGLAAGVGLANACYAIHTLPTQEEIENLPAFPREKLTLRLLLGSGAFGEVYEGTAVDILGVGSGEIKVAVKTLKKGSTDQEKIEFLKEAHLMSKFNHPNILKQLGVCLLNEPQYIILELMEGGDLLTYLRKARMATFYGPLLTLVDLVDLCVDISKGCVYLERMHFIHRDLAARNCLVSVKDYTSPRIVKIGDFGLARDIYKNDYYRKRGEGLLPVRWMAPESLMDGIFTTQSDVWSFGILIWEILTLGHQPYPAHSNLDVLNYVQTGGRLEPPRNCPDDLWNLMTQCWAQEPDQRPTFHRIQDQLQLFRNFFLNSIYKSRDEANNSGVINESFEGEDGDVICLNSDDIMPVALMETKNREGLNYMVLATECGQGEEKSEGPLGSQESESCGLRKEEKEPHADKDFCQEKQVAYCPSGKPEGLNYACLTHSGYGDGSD
Procedure: as §2

[29] = target: Histamine H1 (Homo sapiens, UniProt P35367); test: Safety screen; format: binding
Procedure: as §2

[30] = target: Fms(Y969C)(h) (Homo sapiens, UniProt P07333, Y969C); test: Kinase Profiler; format: biochemical
Procedure: as §1

[31] = target: PRK1(h) (Homo sapiens, UniProt Q16512); test: Kinase Profiler; format: biochemical
Procedure: as §2

[32] = target: CaMKIß(h) (Homo sapiens, UniProt Q6P2M8); test: Kinase Profiler; format: biochemical
Procedure: as §2

[33] = target: EGFR(T790M,L858R)(h) (Homo sapiens, UniProt P00533, L858R/T790M); test: Kinase Profiler; format: biochemical
Procedure: as §1

[34] = target: IKKα(h) (Homo sapiens, UniProt O15111); test: Kinase Profiler; format: biochemical
Procedure: as §2

[35] = target: CK1γ1(h) (Homo sapiens, UniProt Q9HCP0); test: Kinase Profiler; format: biochemical
Procedure: as §2

[36] = target: WNK3(h) (Homo sapiens, UniProt Q9BYP7); test: Kinase Profiler; format: biochemical
Procedure: as §1

[37] = target: MKK6(h) (Homo sapiens, UniProt P52564); test: Kinase Profiler; format: biochemical
Procedure: as §1

[38] = target: ALK1(h) (Homo sapiens, UniProt P37023); test: Kinase Profiler; format: biochemical
Procedure: as §1

[39] = target: ACTR2(h) (Homo sapiens, UniProt P27037); test: Kinase Profiler; format: biochemical
Procedure: as §1

[40] = target: Met(Y1248D)(h) (Homo sapiens, UniProt P08581, Y1230D); test: Kinase Profiler; format: biochemical
Procedure: as §1

[41] = target: GRK2(h) (Homo sapiens, UniProt P25098); test: Kinase Profiler; format: biochemical
Procedure: as §2

## COc1ccc(OC)c(NS(=O)(=O)c2ccc(NC(=O)CCSc3ccc(C)cc3)cc2)c1 [Compound A41]
[1]
  Activity(%): 91%
[2]
  Activity(%): 105%
[3]
  Activity(%): 98%
[4]
  Activity(%): 111%
[5]
  Activity(%): 94%
[6]
  Activity(%): 105%
[7]
  Activity(%): 95%
[8]
  Activity(%): 114%
[9]
  Activity(%): 108%
[10]
  Activity(%): 97%
[11]
  Activity(%): 116%
[12]
  Activity(%): 102%
[13]
  Activity(%): 119%
[14]
  % inh.: 81%
[15]
  Activity(%): 104%
[16]
  Activity(%): 110%
[17]
  Activity(%): 109%
[18]
  Activity(%): 96%
[19]
  Activity(%): 107%
[20]
  Activity(%): 104%
[21]
  off-target binding: only very limited off-target binding
[22]
  Activity(%): 90%
[23]
  Activity(%): 114%
[24]
  Activity(%): 100%
[25]
  Activity(%): 97%
[26]
  Activity(%): 98%
[27]
  Activity(%): 93%
[28]
  Activity(%): 139%
[29]
  % inh.: 41%
[30]
  Activity(%): 107%
[31]
  Activity(%): 93%
[32]
  Activity(%): 114%
[33]
  Activity(%): 104%
[34]
  Activity(%): 107%
[35]
  Activity(%): 106%
[36]
  Activity(%): 101%
[37]
  Activity(%): 90%
[38]
  Activity(%): 102%
[39]
  Activity(%): 108%
[40]
  Activity(%): 118%
[41]
  Activity(%): 96%
